These results are taken from patent US11028079B2 (ConverGene LLC, priority 2015, dated 2021).

A value given as a limit tells only on which side of the number the result lay.

This assay has as its target T1, BRD4 bromodomains (Homo sapiens, UniProt O60885).
T1 construct: fused on or other part: T7 phage capsid protein (phage-display fusion; the phage DNA is read out by qPCR)
Description: BROMOscan bromodomain competition binding assay (DiscoveRx). The note with it: Kd from 11 compound concentrations ranging from 0 to 10 μM, read-out: BROMOscan Relative Activity. In outline: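 Compounds in 0.1% DMSO/0.9% MEG competed with a solid-phase acetylated peptide for T7 phage-fused BRD4 bromodomains, with the retained bromodomain measured by qPCR.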
Consider `Cc1noc(C)c1-c1ccc2nc(C(=O)NCc3nccn3C)nc(NCc3cccc(Cl)c3)c2c1` [Example 251, 4-((3-chlorobenzyl)amino)-6-(3,5-dimethylisoxazol-4-yl)-N-((1-methyl-1H-imidazol-2-yl)methyl)quinazoline-2-carboxamide], for which the Kd was below 500 nM.

For the compound `Cc1noc(C)c1-c1ccc2nc(C(=O)N3CCc4c(cnn4C)C3)nc(N3CCOC[C@@H]3c3ccccc3)c2c1` [Example 276, (S)-(6-(3,5-dimethylisoxazol-4-yl)-4-(3-phenylmorpholino)quinazolin-2-yl)(1-methyl-1,4,6,7-tetrahydro-5H-pyrazolo[4,3-c]pyridin-5-yl)methanone], the Kd lay in the range of 500 to 5000 nM.

In the case of `Cc1noc(C)c1-c1ccc2nc(C(=O)N3CCC4(CC3)CC(O)C4)nc(N3CCOC[C@@H]3c3ccccc3)c2c1` [Example 316, (S)-(6-(3,5-dimethylisoxazol-4-yl)-4-(3-phenylmorpholino)quinazolin-2-yl)(2-hydroxy-7-azaspiro[3.5]nonan-7-yl)methanone], the Kd is 500 to 5000 nM.

Turning to `Cc1noc(C)c1-c1ccc2nc(C(=O)N(C)C3CCN(C)CC3)nc(NCc3cccc(Cl)c3)c2c1` [Example 211, 4-((3-chlorobenzyl)amino)-6-(3,5-dimethylisoxazol-4-yl)-N-methyl-N-(1-methylpiperidin-4-yl)quinazoline-2-carboxamide], the Kd was below 500 nM.

Regarding `Cc1noc(C)c1-c1ccc2nc(N3CCC(CCO)CC3)nc(NCc3cccc(Cl)c3)c2c1` [Example 30, 2-(1-(4-((3-chlorobenzyl)amino)-6-(3,5-dimethylisoxazol-4-yl)quinazolin-2-yl)piperidin-4-yl)ethanol], the Kd lay in the range of 500 to 5000 nM.

For `Cc1noc(C)c1-c1ccc2nc(C(=O)NCc3cncn3C)nc(NCc3cccc(Cl)c3)c2c1` [Example 183, 4-((3-chlorobenzyl)amino)-6-(3,5-dimethylisoxazol-4-yl)-N-((1-methyl-1H-imidazol-5-yl)methyl)quinazoline-2-carboxamide], the Kd is below 500 nM.

Regarding `CNC(=O)Cn1cc(-c2nc(NC3(c4cccc(Cl)c4)CC3)c3cc(-c4c(C)noc4C)ccc3n2)cn1` [Example 181, 2-(4-(4-((1-(3-chlorophenyl)cyclopropyl)amino)-6-(3,5-dimethylisoxazol-4-yl)quinazolin-2-yl)-1H-pyrazol-1-yl)-N-methylacetamide], the Kd was below 500 nM.

With `CN(C)CCN1CCN(c2nc(NCc3cccc(Cl)c3)c3cc(-c4cnc(O)c(F)c4)ccc3n2)CC1` [Example 86, 5-(4-((3-chlorobenzyl)amino)-2-(4-(2-(dimethylamino)ethyl)piperazin-1-yl)quinazolin-6-yl)-3-fluoropyridin-2-ol], the Kd was 500 to 5000 nM.

In the case of `Cc1noc(C)c1-c1ccc2nc(N3CCN(CCN(C)C)CC3)nc(NCc3cccc(F)c3)c2c1` [Example 77, 2-(4-(2-(dimethylamino)ethyl)piperazin-1-yl)-6-(3,5-dimethylisoxazol-4-yl)-N-(3-fluorobenzyl)quinazolin-4-amine], the Kd was below 500 nM.

For the compound `Cc1noc(C)c1-c1ccc2nc(-n3cc(CCO)cn3)nc(NCc3cccc(Cl)c3)c2c1` [Example 42, 2-(1-(4-((3-chlorobenzyl)amino)-6-(3,5-dimethylisoxazol-4-yl)quinazolin-2-yl)-1H-pyrazol-4-yl)ethanol], the Kd is below 500 nM.

For `Cc1noc(C)c1-c1ccc2nc(N3CCN(CCN(C)C)CC3)nc(NCc3cccs3)c2c1` [Example 71, 2-(4-(2-(dimethylamino)ethyl)piperazin-1-yl)-6-(3,5-dimethylisoxazol-4-yl)-N-(thiophen-2-ylmethyl)quinazolin-4-amine], the Kd is below 500 nM.

On to `Cc1noc(C)c1-c1ccc2nc(N3CCN(CCN(C)C)CC3)nc(NCc3ccc(Cl)cc3)c2c1` [Example 95, N-(4-chlorobenzyl)-2-(4-(2-(dimethylamino)ethyl)piperazin-1-yl)-6-(3,5-dimethylisoxazol-4-yl)quinazolin-4-amine], for which the Kd is 500 to 5000 nM.
